Data from patent US6610675B1 (priority 1980, dated 2003).

Legend:
[1] = test system: granulation tissue formation caused by implantation of cotton pellets; assay: Granuloma formation test (local cotton pellet granuloma assay); assay type: in vivo, rat; conditions: for Body wt. gain / Granulation tissue Dry wt. / Granulation tissue Dry wt. Inhibition / Granulation tissue Wet wt. / Granulation tissue Wet wt. Inhibition / Thymus wt.: Table IV; for Relative potency (ED40) / Relative potency (ED60): chloromethyl 11β-hydroxy-17α-isopropoxycarbonyloxyandrost-4-en-3-one-17β-carboxylate = 1; for ED40: dose causing 40% inhibition of granulation tissue weight; for ED60: dose causing 60% inhibition of granulation tissue weight
Method: The test compound was dissolved in acetone and aliquots of varying concentrations were injected into cotton pellets. The pellets were dried and then one pellet was implanted beneath the skin of each test rat. Six days later, the animals were sacrificed and the granulation tissue (granuloma) which formed in and around the implanted pellet was removed, dried and weighed. In addition, the thymi and adrenals were removed and weighed.

thymus weight in rats = assay: Thymus inhibition testing (subcutaneous administration); assay type: in vivo, rat; conditions: for TED50: dose required to achieve 50% inhibition of thymi weight
Method: Several further studies were undertaken to determine the effects of selected compounds of the invention on thymi weights in rats when the drugs were systemically administered. In each of these studies, male Sprague-Dawley rats were used. […] On the fifth day (48 hours following the last treatment), the animals were sacrificed and the thymi weights were recorded. […] It is evident that the higher the inhibition of thymus activity at a given dose, the more toxic the compound is.

[2] = dose causing 50% inhibition of granulation tissue weight
[3] = Table VIII, 10 mg/kg/day s.c., three days
[4] = Table XII, anti-inflammatory effect in cotton pellet granuloma
[5] = Table IX, 3 mg/kg/day s.c., three days
[6] = Table IX, 10 mg/kg/day s.c., three days
[7] = Table IX, 30 mg/kg/day s.c., three days
[8] = Table IX, 100 mg/kg/day s.c., three days
[9] = Table XII, hydrocortisone 17-butyrate = 1
[10] = Table XII, thymus inhibition effect, subcutaneously
[11] = Table VII, 3 mg/kg/day s.c., three days
[12] = Table VII, 10 mg/kg/day s.c., three days
[13] = Table VII, 30 mg/kg/day s.c., three days
[14] = Table VII, 100 mg/kg/day s.c., three days
[15] = Table X, betamethasone 17-valerate = 1
[16] = Table X, dose required to achieve 40% inhibition of thymi weight, subcutaneous

CC(C)OC(=O)O[C@]1(C(=O)OCCl)[C@@H](C)C[C@H]2[C@@H]3CCC4=CC(=O)C=C[C@]4(C)[C@@]3(F)[C@@H](O)C[C@@]21C [chloromethyl 9α-fluoro-11β-hydroxy-17α-isopropoxycarbonyloxy-16β-methylandrosta-1,4-dien-3-one-17β-carboxylate]
Body wt. gain ([1]; 1 μg/pellet): 33.0 ± 1.7 g
Granulation tissue Dry wt. ([1]; 1 μg/pellet): 44.4 ± 5.4 mg
Granulation tissue Dry wt. Inhibition ([1]; 1 μg/pellet): 45.3%
Granulation tissue Wet wt. ([1]; 1 μg/pellet): 423 ± 19 mg
Granulation tissue Wet wt. Inhibition ([1]; 1 μg/pellet): 25.3%
Thymus wt. ([1]; 1 μg/pellet): 526 ± 30 mg
Body wt. gain ([1]; 3 μg/pellet): 30.4 ± 1.1 g
Granulation tissue Dry wt. ([1]; 3 μg/pellet): 26.9 ± 4.4 mg
Granulation tissue Dry wt. Inhibition ([1]; 3 μg/pellet): 66.9%
Granulation tissue Wet wt. ([1]; 3 μg/pellet): 351 ± 19 mg
Granulation tissue Wet wt. Inhibition ([1]; 3 μg/pellet): 38.0%
Thymus wt. ([1]; 3 μg/pellet): 471 ± 20 mg
Body wt. gain ([1]; 10 μg/pellet): 33.0 ± 1.5 g
Granulation tissue Dry wt. ([1]; 10 μg/pellet): 29.9 ± 3.3 mg
Granulation tissue Dry wt. Inhibition ([1]; 10 μg/pellet): 63.2%
Granulation tissue Wet wt. ([1]; 10 μg/pellet): 362 ± 8 mg
Granulation tissue Wet wt. Inhibition ([1]; 10 μg/pellet): 36.0%
Thymus wt. ([1]; 10 μg/pellet): 474 ± 25 mg
Body wt. gain ([1]; 30 μg/pellet): 31.8 ± 1.7 g
Granulation tissue Dry wt. ([1]; 30 μg/pellet): 19.9 ± 2.3 mg
Granulation tissue Dry wt. Inhibition ([1]; 30 μg/pellet): 75.5%
Granulation tissue Wet wt. ([1]; 30 μg/pellet): 315 ± 12 mg
Granulation tissue Wet wt. Inhibition ([1]; 30 μg/pellet): 44.3%
Thymus wt. ([1]; 30 μg/pellet): 489 ± 26 mg
Relative potency (ED40) [1]: 1228
Relative potency (ED60) [1]: 184
ED40 [1]: 0.25 μg/pellet
ED50 [1, 2]: 0.97 μg/pellet
ED60 [1]: 3.75 μg/pellet
Body weight gain (thymus weight in rats; [3]): 5.3 ± 1.4 g
Thymus wt. (thymus weight in rats; [3]): 260 ± 26 mg
Thymus wt. Inhibition (thymus weight in rats; [3]): 52.7%

COC(=O)O[C@]1(C(=O)OCCl)[C@H](C)C[C@H]2[C@@H]3CCC4=CC(=O)C=C[C@]4(C)[C@@]3(F)[C@@H](O)C[C@@]21C [chloromethyl 9α-fluoro-11β-hydroxy-17α-methoxycarbonyloxy-16α-methylandrosta-1,4-dien-3-one-17β-carboxylate]
ED50 [1, 4]: 2.38 μg/pellet
Body weight gain (thymus weight in rats; [5]): 18.8 ± 1.4 g
Thymus wt. (thymus weight in rats; [5]): 426 ± 19 mg
Thymus wt. Decrease (thymus weight in rats; [5]): 0.0%
Body weight gain (thymus weight in rats; [6]): 13.8 ± 1.6 g
Thymus wt. (thymus weight in rats; [6]): 354 ± 8 mg
Thymus wt. Decrease (thymus weight in rats; [6]): 16.9%
Body weight gain (thymus weight in rats; [7]): 12.0 ± 0.8 g
Thymus wt. (thymus weight in rats; [7]): 282 ± 11 mg
Thymus wt. Decrease (thymus weight in rats; [7]): 33.8%
Body weight gain (thymus weight in rats; [8]): 9.8 ± 1.3 g
Thymus wt. (thymus weight in rats; [8]): 206 ± 15 mg
Thymus wt. Decrease (thymus weight in rats; [8]): 51.6%
Relative Potency (TED40) (thymus weight in rats; [9]): 1/36
TED40 (thymus weight in rats; [10]): 46.0 mg/kg

CC(C)OC(=O)O[C@]1(C(=O)OCCl)CC[C@H]2[C@@H]3CCC4=CC(=O)C=C[C@]4(C)[C@H]3[C@@H](O)C[C@@]21C [chloromethyl 11β-hydroxy-17α-isopropoxycarbonyloxy-androsta-1,4-dien-3-one-17β-carboxylate]
Body wt. gain ([1]; 30 μg/pellet): 32.4 ± 1.2 g
Granulation tissue Dry wt. ([1]; 30 μg/pellet): 51.0 ± 2.8 mg
Granulation tissue Dry wt. Inhibition ([1]; 30 μg/pellet): 37.2%
Granulation tissue Wet wt. ([1]; 30 μg/pellet): 432 ± 15 mg
Granulation tissue Wet wt. Inhibition ([1]; 30 μg/pellet): 23.7%
Thymus wt. ([1]; 30 μg/pellet): 523 ± 26 mg
Body wt. gain ([1]; 100 μg/pellet): 35.0 ± 1.5 g
Granulation tissue Dry wt. ([1]; 100 μg/pellet): 41.1 ± 5.8 mg
Granulation tissue Dry wt. Inhibition ([1]; 100 μg/pellet): 49.4%
Granulation tissue Wet wt. ([1]; 100 μg/pellet): 417 ± 27 mg
Granulation tissue Wet wt. Inhibition ([1]; 100 μg/pellet): 26.3%
Thymus wt. ([1]; 100 μg/pellet): 537 ± 31 mg
Body wt. gain ([1]; 300 μg/pellet): 34.4 ± 1.1 g
Granulation tissue Dry wt. ([1]; 300 μg/pellet): 38.1 ± 5.9 mg
Granulation tissue Dry wt. Inhibition ([1]; 300 μg/pellet): 53.1%
Granulation tissue Wet wt. ([1]; 300 μg/pellet): 369 ± 18 mg
Granulation tissue Wet wt. Inhibition ([1]; 300 μg/pellet): 34.8%
Thymus wt. ([1]; 300 μg/pellet): 525 ± 28 mg
Body wt. gain ([1]; 1000 μg/pellet): 29.4 ± 1.5 g
Granulation tissue Dry wt. ([1]; 1000 μg/pellet): 18.5 ± 2.4 mg
Granulation tissue Dry wt. Inhibition ([1]; 1000 μg/pellet): 77.2%
Granulation tissue Wet wt. ([1]; 1000 μg/pellet): 289 ± 12 mg
Granulation tissue Wet wt. Inhibition ([1]; 1000 μg/pellet): 48.9%
Thymus wt. ([1]; 1000 μg/pellet): 423 ± 26 mg
ED50 [1, 4]: 119 μg/pellet
Relative potency (ED40) [1]: 6.5
Relative potency (ED60) [1]: 2.3
ED40 [1]: 47 μg/pellet
ED50 [1, 2]: 119 μg/pellet
ED60 [1]: 301 μg/pellet
Body weight gain (thymus weight in rats; [11]): 9.0 ± 0.9 g
Thymus (thymus weight in rats; [11]): 377 ± 16 mg
Thymus Inhibition (thymus weight in rats; [11]): 20.0%
Body weight gain (thymus weight in rats; [12]): 6.2 ± 0.7 g
Thymus (thymus weight in rats; [12]): 312 ± 23 mg
Thymus Inhibition (thymus weight in rats; [12]): 33.8%
Body weight gain (thymus weight in rats; [13]): 4.8 ± 1.4 g
Thymus (thymus weight in rats; [13]): 257 ± 24 mg
Thymus Inhibition (thymus weight in rats; [13]): 45.4%
Body weight gain (thymus weight in rats; [14]): 0.3 ± 1.6 g
Thymus (thymus weight in rats; [14]): 161 ± 19 mg
Thymus Inhibition (thymus weight in rats; [14]): 65.8%
Relative Potency (TED40) (thymus weight in rats; [15]): 0.02
Relative Potency (TED50) (thymus weight in rats; [15]): 0.02
TED40 (thymus weight in rats; [16]): 16.2 mg
TED50 (thymus weight in rats; Table X, subcutaneous): 35.3 mg
Relative Potency (TED40) (thymus weight in rats; [9]): 1/12
TED40 (thymus weight in rats; [10]): 16.2 mg/kg

CC(C)OC(=O)O[C@]1(C(=O)OCCl)CC[C@H]2[C@@H]3CCC4=CC(=O)CC[C@]4(C)[C@H]3[C@@H](O)C[C@@]21C [chloromethyl 11β-hydroxy-17α-isopropoxycarbonyloxyandrost-4-en-3-one-17β-carboxylate]
Body wt. gain ([1]; 100 μg/pellet): 34.9 ± 2.7 g
Granulation tissue Dry wt. ([1]; 100 μg/pellet): 70.0 ± 6.0 mg
Granulation tissue Dry wt. Inhibition ([1]; 100 μg/pellet): 13.8%
Granulation tissue Wet wt. ([1]; 100 μg/pellet): 485 ± 36 mg
Granulation tissue Wet wt. Inhibition ([1]; 100 μg/pellet): 14.3%
Thymus wt. ([1]; 100 μg/pellet): 452 ± 29 mg
Body wt. gain ([1]; 300 μg/pellet): 33.9 ± 1.6 g
Granulation tissue Dry wt. ([1]; 300 μg/pellet): 50.9 ± 2.8 mg
Granulation tissue Dry wt. Inhibition ([1]; 300 μg/pellet): 37.3%
Granulation tissue Wet wt. ([1]; 300 μg/pellet): 431 ± 20 mg
Granulation tissue Wet wt. Inhibition ([1]; 300 μg/pellet): 23.9%
Thymus wt. ([1]; 300 μg/pellet): 469 ± 25 mg
Body wt. gain ([1]; 1000 μg/pellet): 34.0 ± 2.6 g
Granulation tissue Dry wt. ([1]; 1000 μg/pellet): 24.1 ± 2.7 mg
Granulation tissue Dry wt. Inhibition ([1]; 1000 μg/pellet): 70.3%
Granulation tissue Wet wt. ([1]; 1000 μg/pellet): 305 ± 16 mg
Granulation tissue Wet wt. Inhibition ([1]; 1000 μg/pellet): 46.1%
Thymus wt. ([1]; 1000 μg/pellet): 464 ± 30 mg
Body wt. gain ([1]; 3000 μg/pellet): 32.4 ± 2.3 g
Granulation tissue Dry wt. ([1]; 3000 μg/pellet): 20.3 ± 1.3 mg
Granulation tissue Dry wt. Inhibition ([1]; 3000 μg/pellet): 75.0%
Granulation tissue Wet wt. ([1]; 3000 μg/pellet): 292 ± 7 mg
Granulation tissue Wet wt. Inhibition ([1]; 3000 μg/pellet): 48.4%
Thymus wt. ([1]; 3000 μg/pellet): 459 ± 24 mg
ED50 [1, 4]: 460 μg/pellet
Relative potency (ED40) [1]: 1
Relative potency (ED60) [1]: 1
ED40 [1]: 307 μg/pellet
ED50 [1, 2]: 460 μg/pellet
ED60 [1]: 690 μg/pellet
Body weight gain (thymus weight in rats; [11]): 14.7 ± 0.6 g
Thymus (thymus weight in rats; [11]): 439 ± 18 mg
Thymus Inhibition (thymus weight in rats; [11]): 6.8%
Body weight gain (thymus weight in rats; [12]): 10.2 ± 0.7 g
Thymus (thymus weight in rats; [12]): 386 ± 17 mg
Thymus Inhibition (thymus weight in rats; [12]): 18.0%
Body weight gain (thymus weight in rats; [13]): 6.8 ± 2.1 g
Thymus (thymus weight in rats; [13]): 291 ± 22 mg
Thymus Inhibition (thymus weight in rats; [13]): 38.2%
Body weight gain (thymus weight in rats; [14]): 2.8 ± 1.8 g
Thymus (thymus weight in rats; [14]): 185 ± 17 mg
Thymus Inhibition (thymus weight in rats; [14]): 60.7%
Relative Potency (TED40) (thymus weight in rats; [15]): 0.01
Relative Potency (TED50) (thymus weight in rats; [15]): 0.01
TED40 (thymus weight in rats; [16]): 31.0 mg
TED50 (thymus weight in rats; Table X, subcutaneous): 58.5 mg
Relative Potency (TED40) (thymus weight in rats; [9]): 1/24
TED40 (thymus weight in rats; [10]): 31.0 mg/kg
